From PMC12320299 (Chemical Science, 2025)

Experiments:
Assay type in all cases: cell-based, human
[1] = test system: HCT116 TP53-knockout (TP53KO) cell line; assay: MTT viability assay, HCT116 TP53-knockout, 96 h
Procedure: removed and 100 µL DMSO was added to dissolve the formazan crystals. Photometric quantification was performed at 570 nm with a Multiskan Go 1510 photometer (Thermo Fisher […]
The absorbances were blank corrected and converted to relative proliferation. The IC50 values (concentration of 50% growth inhibition) were obtained using a sigmoidal fit of the experimental data and calculated as the mean ± standard deviation of at least three independent experiments, each in at least triplicates.
HCT116, HCT116 p53KO (each 2.000 cells/well) and CT-26 cells (500 cells/well) were seeded in 100 µL/well into flat-bottom 96-well plates (Starlab) and incubated at 37 °C for 96 h in a humidified incubator (Binder CB210) at 5% CO2. The test compound was dissolved in DMSO, serially diluted in the appropriate cell culture medium (see section above) to final DMSO concentrations of ≤0.5% v/v and 100 µL aliquots added to wells in triplicates. […] Optical densities were measured with a microplate reader (ELx808, Biotek) at a wavelength of 550 nm (and a reference wavelength of 690 nm) and blank corrected. […]
(each 3.000 cells/well) were seeded in 100 µL/well into flat-bottom 96-well plates (Starlab) and incubated at 37 °C for 24 h in a humidified incubator (Binder CB210) at 5% CO2. […] After 24 h of treatment, plates were measured by MTT assay as described above. […]

TP53 = assay: Immunofluorescence staining of TP53; details: SW480, 24 h; 1a 1 μM; etoposide 100 nM
Procedure: Cell Signaling Technology (Danvers, MA, USA), respectively. Horseradish-peroxidase-linked secondary antibodies, anti-mouse IgG (Fc specific) antibody (#7076S) and anti-rabbit IgG antibody (#7074S) were purchased from Cell Signaling Technology (Danvers, MA, USA). Anti-ß-actin (AC-15) (A5441, 1:2000) was obtained from Sigma-Aldrich (St. Louis, MO, USA).
SW480 and CT26 cells were grown at a density of 6.7x10^4 cells/mL on 8-well glass coverslips (80841, ibidi GmbH, Gräfelfing, Germany) in 300 µL complete media. The next day, cells were treated with respective compounds for 24 h. Cells were fixed with 4%(v/v) paraformaldehyde for 15 min at RT, followed by washing, blocking and permeabilization with 5%(w/v) BSA and […]
(1 : 500) were diluted in 1% BSA-0.3% Triton-X-100 in PBS and incubated overnight at 4 °C.
One well was incubated without primary antibody as background control. Cells were washed and stained with secondary goat anti-mouse AlexaFlour-488 (1 : 500 dilution, A-11029, Thermo Fisher Scientific) or goat anti-rabbit AlexaFlour-488 (1 : 500 dilution, A-11034, Thermo Fisher Scientific) antibodies for 1 h at RT. Following, cells were stained with 0.2% Wheat Germ Agglutinin (WGA)-Rhodamine (RL-1022, Vector Laboratories, Inc.) and 0.1% DAPI (62248, Thermo Fisher Scientific) for staining of plasma membrane and nuclei, respectively, according to manufacturer’s recommendations. […]

p21 = p21 expression, western blotting and immunofluorescence, SW480; details: 24 h, 1 μM
Procedure: overnight at –20 °C. The pellet containing the nuclei was incubated with a hypertonic solution (10 mM Tris-HCl, 1 mM EDTA and 0.5 M NaCl) and subsequently diluted 1:10 with NP-40 buffer (10 mm Tris-HCl, 1 mm EDTA and 0.5% Triton X-100) containing protease inhibitors (1% PMSF, Sigma, and 1% protease and phosphatase inhibitor cocktail, Roche). After centrifugation (960 g, 5 min), the soluble nuclear (NE) proteins were also transferred into new tubes containing ice-cold ethanol (1 : 5, HPLC grade) and precipitated overnight at –20 °C.
The precipitated proteins were finally pelleted by centrifugation (5000 g, 30 min, 4 °C), the solution was decanted and the pellet dried under vacuum.
Samples were then dissolved in lysis buffer (8 M urea, 20% SDS, 1 M TEAB at pH 7.55) and denatured at 95 °C for 5 min. The protein amount was then quantified using a BCA assay. A total of 20 µg protein per sample was used for processing. Proteins were reduced with 50 µL of DTT (64 mM) and carbamidomethylated with 50 µL of iodoacetamide (486 mM). […]
and allowed to adhere overnight. […] For whole cell lysates, samples were collected, proteins isolated, and Western blotting performed as described in detail previously.5 In brief, protein concentration was determined using the Micro BCA™ Protein Assay Kit (Thermo Fisher Scientific, Waltham, MA, USA). […]

CCC1=C2[O][Ru][O]C2(n2cccn2)c2ccccc2C1=O.Cc1ccc(C(C)C)cc1 (stereo not drawn) [Compound 1a, [(3-ethyl-4-oxo-(pyrazolyl)-dihydronaphthalene)(cymene)ruthenium(II)]]
IC50 [1]: 260 ± 10 nM
TP53 immunofluorescence signal (TP53): decisive loss of TP53 signal intensity
p21 expression, SW480 (p21): significantly reduced p21 expression
